Experimental data reported in publication PMC11920646 (Frontiers in Pharmacology, 2025).
Where “and” joins values, the source holds several entries; their conditions need not be identical. Equal values may be shown once.

How the values were obtained:
[1] = tested on: LPS-induced TNF-α release in rat whole blood; assay: Inhibition of LPS-induced TNF-α release in rat whole blood; assay type: cell-based; settings: 18 h
Protocol: Arterial blood was collected from male Sprague-Dawley rats (180–250 g; Janvier Labs, Le Genest-Saint-Isle, France) in heparin syringes. […] Plasma was collected via centrifugation and TNF-α measured using a TNFalpha Kit (PerkinElmer, Waltham, MA, United States), according to manufacturers’ instructions, and a microplate reader (EnVision Multilabel Reader®, PerkinElmer; Supplementary Material). The IC50 values for inhibition of TNF-α release were calculated by fitting concentration response curves to a four parameter nonlinear regression model using ActivityBase (XLfit® software; ID Business Solutions Ltd.). […] In addition, IC50,free values were determined by correcting the IC50 values for plasma protein binding (PPB); see the Supplementary Material for the calculation.
The immuno-assay-buffer provided in the kit was diluted 1:10 in water and the mouse TNF-α analyte standard was diluted in rat plasma (30,000–4 pg/mL). […] After a 30-min incubation at room temperature, the plates were read using an EnVision Multilabel Reader® (PerkinElmer) equipped with the ALPHA option using the AlphaScreen standard settings. […]

[2] = tested on: tyrosine aminotransferase (TAT) activity in HepG2 cells; assay: Induction of TAT enzyme activity in HepG2 cells; assay type: cell-based, human; settings: for EC50: 24 h; for Efficacy, induction of TAT enzyme activity: relative to dexamethasone, GRM-01 maximum at 10 µM
Protocol: TAT is a key enzyme in gluconeogenesis under the control of glucocorticoids and their interaction with the GR ([Panin and Usynin, 2008]), where induction of TAT expression is mediated through GR transactivation.
HepG2 cells were seeded at 20,000 cells/well in an Eagles’ minimal essential medium (EMEM)-based cell culture medium (Supplementary Material) in 96-well plates and incubated for 24 h in standard conditions. […] Medium was removed, cells washed with 50 μL of phosphate buffered saline (PBS) solution and lysis buffer added (45 µL/well) for a 20-min incubation in agitation at 1,200 rpm at room temperature. Detection buffer (150 µL/well) was added for a 2-h incubation after which the reaction was stopped, followed by a 30-min incubation, all at 37°C. This reaction solution was transferred to an absorbance detection plate (5 µL/well) to measure TAT expression (Envision plate reader, PerkinElmer).
The HepG2 cell culture medium was comprised of 500 mL of Eagles’ minimal essential medium (EMEM) without L-glutamine, 5 mL of 100X penicillin/streptomycin, 5 mL of Ultraglutamine I Supplement 200 mM, 5 mL of non-essential amino acids (NEAA) 100X (all from Lonza), and 50 mL of FBS (Sigma).
% activation= compound -minmax- min ×100
where min = TAT expression in medium only, max = TAT expression after stimulation with dexamethasone

human GR = biological target: T1, human GR (Homo sapiens, UniProt P04150); assay: GR reporter gene (transactivation) assay, CHO-Gal4/GR; assay type: cell-based; settings: % of reference agonist beclomethasone
T1 construct: host or cells: CHO (DSMZ ACC-110), CHO-Gal4/GR
T1 sequence (P04150 524-758 limits assumed): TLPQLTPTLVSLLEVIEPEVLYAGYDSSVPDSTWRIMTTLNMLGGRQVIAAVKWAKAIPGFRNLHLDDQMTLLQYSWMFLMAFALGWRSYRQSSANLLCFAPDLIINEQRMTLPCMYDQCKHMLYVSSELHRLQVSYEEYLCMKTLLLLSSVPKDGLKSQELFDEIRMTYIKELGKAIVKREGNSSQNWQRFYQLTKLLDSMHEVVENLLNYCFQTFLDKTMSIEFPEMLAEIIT
From the text: (§1) To create the CHO-Gal4/GR, CHO-Gal4/PR, and CHO-Gal4/MR reporter cell lines, first CHO cells were stably transfected with a GAL4-UAS-luciferase reporter construct. Then, the LBD of the GR, PR, or MR (GR Gene ID: 2908, PR Gene ID: 5241, MR Gene ID: 4306, respectively) was cloned into pIRES2-EGFP-GAL4 containing the DBD of GAL4 from pFA-AT2, and then co-transfected into the luciferase-reporter construct-containing CHO cells. These reporter cell lines express the respective nuclear hormone receptor LBD-DBD fusion proteins that control luciferase expression of a GAL4-upstream activation sequence (UAS)-luciferase reporter construct, allowing for detection of ligand- or compound-induced transactivation at the GR, PR, or MR by measuring luciferase activity.
(§2) Cryo-preserved CHO-Gal4/GR, CHO-Gal4/PR, and CHO-Gal4/MR cells were plated in medium at 7,500 cells/well in 384-well assay plates (25 μL/well), and incubated for 24 h. […] Following a 4-h incubation, cells were lysed and luminescence measured using the EMCCD camera FLIPR®Tetra (Molecular Devices, Silicon Valley, CA, United States).
(§3) Transactivation (i.e., gene activation) was expressed as a percentage of the reference agonist activity (Supplementary Material), using Genedata Screener® v15.0.5 software (Basel, Switzerland).
(§4) Transactivation was calculated according to this equation: […]

human PR = biological target: T2, human PR (Homo sapiens, UniProt P06401); assay: PR reporter gene (transactivation) assay, CHO-Gal4/PR; assay type: cell-based; settings: up to 10 µM
T2 construct: host or cells: CHO (DSMZ ACC-110), CHO-Gal4/PR
T2 sequence (P06401 679-913 limits assumed): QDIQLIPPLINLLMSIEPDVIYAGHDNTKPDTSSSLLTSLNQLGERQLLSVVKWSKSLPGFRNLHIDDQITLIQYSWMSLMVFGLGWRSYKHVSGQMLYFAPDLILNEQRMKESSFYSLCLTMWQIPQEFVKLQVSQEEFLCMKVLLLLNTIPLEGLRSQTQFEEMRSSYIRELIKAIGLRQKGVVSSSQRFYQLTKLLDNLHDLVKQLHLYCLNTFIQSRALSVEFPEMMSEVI
From the text: as §1, §2, §3, §4

[3] = tested on: SCW-induced ankle inflammation in female Lewis rats; assay: Rat streptococcal cell wall (SCW) model of joint inflammation; assay type: in vivo
Protocol: Female Lewis rats (150–200 g, Charles River, United Kingdom) were used for the model of joint inflammation (see Supplementary Material for animal care), with in vivo efficacy assays conducted at the Saretius Ltd., Science and Technology Centre (Reading, United Kingdom). Monoarticular joint inflammation was induced on Day −21 by intra-articular injection of 10 μg of streptococcal cell wall (SCW) extract (Lee Laboratories, BD Scientific, Franklin Lakes, NJ, United States) into the left hind ankle joint. […] Treatments, including control, were administered orally once daily on Days −1 to 6 of the study. Additionally, on Day 0, each rat received an intravenous (IV) dose of 100 μg SCW extract 2 h after oral dosing. IV injections were given after rats had spent up to 10 min in a 40°C hot box (Thermacage MK2, Datesand Ltd., Manchester, United Kingdom).
Rat ankle diameters were measured using digital calipers (Mitutoyo, United Kingdom, Model: CDS6CX), mechanical allodynia tested using von Frey hairs, and rats weighed, per the schedule in Supplementary Table S2. […] On Day 6, rats were euthanized by a schedule 1 method (carbon dioxide) and terminal blood samples collected by cardiac puncture. After centrifugation to obtain plasma supernatant (10,000 rpm, 3 min), plasma was stored at −20°C until analysis. […] Glucose test strips (Roche Accu-Check with Aviva blood glucose system meter) were used to measure blood glucose levels at the time blood was drawn. All data were analyzed with Statistica v11 software (StatSoft Inc., Tulsa, OK, United States), using the Kolmogorov-Smirnov test to assess normality of distribution (see Supplementary Material for further detail), and to determine total area under the concentration-time curve (AUC) using the trapezoidal method. […] The effect of each treatment on ankle inflammation was determined by the reduction in ipsilateral ankle AUC versus control.
Data that was not normally distributed were analyzed with Kruskal-Wallis analysis of variance (ANOVA) followed by Dunn’s multiple comparisons tests. Normally distributed data were analyzed with repeated measures ANOVAs as appropriate, one-way ANOVAs and Dunnett’s post hoc tests.

**Q.** What does the source list for C[C@]12C=CC(=O)C=C1CC[C@@H]1[C@@H]2[C@@H](O)C[C@@]2(C)[C@H]1CC[C@]2(O)C(=O)CO [Prednisolone]?
**A.** IC50 [1]: 8.1 ± 2.1 nM; Inhibition of LPS-induced TNF-α release [1]: 99 ± 3%; EC50 [2]: 284 ± 113 nM; EC50 ([2]; Homo sapiens, HepG2, 24 h): 283 nM; Efficacy, induction of TAT enzyme activity [2]: 92.4 ± 5.3%; Efficacy, induction of TAT enzyme activity ([2]; listed as prednisolone): 92.4% and 92%; GR transactivation, mean activation (efficacy) (human GR): 80.5% and 80.5 ± 2.2%; PR transactivation (human PR): no detectable transactivation; change in blood glucose AUC2.5–24h versus vehicle ([3]; Day 5, GRM-01 any dose 0.01–1 mg/kg/day, prednisolone 30 mg/kg/day): statistically significant increase; blood glucose at time points post dose versus vehicle ([3]; Day 5, GRM-01 at 2.5 h, all doses except 0.03 mg/kg/day, not dose dependent, prednisolone 30 mg/kg/day at 2.5, 4 and 6 h): significantly higher blood glucose levels; effect on plasma corticosterone levels vs vehicle ([3]; Day 6, GRM-01 significant at 0.3 mg/kg/day (p < 0.01), prednisolone 30 mg/kg/day (p < 0.01)): reduced plasma corticosterone levels; antinociceptive effect (ipsilateral paw withdrawal threshold vs vehicle) ([3]; GRM-01 0.1, 0.3, 1 mg/kg/day, prednisolone 30 mg/kg/day): demonstrated an antinociceptive effect; ED50 ([3]; rat SCW model, separate and independent study, doses 0.003–30 mg/kg, read-out: ED50, change in AUC of ankle diameter): 2.49 mg/kg
